From patent US9422339B2, “Immunomodulating cyclic compounds” (Aurigene Discovery Technologies Limited, priority 2012, dated 2016)
Read-outs that look alike come from different tables or passages of the source. Where a SMILES comes first, the peptide text is derived from it. Bridges are numbered along the chain shown (N, C = ends). [ ]: non-standard residue; d: D form. ξ: configuration not given here. ξE = NC(CCC(=O)O)C(=O)O; ξQ = NC(=O)CCC(N)C(=O)O; ξK = NCCCCC(N)C(=O)O; Ahx = NCCCCCC(=O)O; ξS = NC(CO)C(=O)O

What was measured:
[1] = target: T1, PD1-PDL1 interaction (Homo sapiens, UniProt Q9NZQ7); test: CFSE mouse splenocyte proliferation assay (FACS), co-culture with MDA-MB-231 tumor cells expressing PD-L1; type: cell-based; details: for % Splenocyte proliferation: mouse splenocytes stimulated with anti-CD3/CD28, co-culture with MDAMB231 over expressing PDL1, 72 hrs, background 13, stimulated splenocytes 72
T1 construct: endogenous in cells; host or cells: MDA-MB-231 tumor cells (PD-L1); primary splenocytes of C57BL/6 mice (PD-1)
Experimental: The effect of PD1 derived peptides on mouse splenocyte proliferation inhibited by PDL1/PDL2 or tumor cells expressing PDL; analyzed by Fluorescence Activated Cell Shorting (FACS) method using CFSE labeling. Mouse splenocytes harvested from 6-8 weeks old C57 BL6 mice; RPMI 1640 (GIBCO, Cat #11875); DMEM with high glucose (GIBCO, Cat # D6429); Fetal Bovine Serum [Hyclone, Cat # SH30071.03]; Penicillin (10000 unit/ml)-Streptomycin (10,000 μg/ml) Liquid (GIBCO, Cat #15140-122); MEM Sodium Pyruvate solution 100 mM (100×), Liquid (GIBCO, Cat #11360); Nonessential amino acid (GIBCO, Cat #11140); L-Glutamine (GIBCO, Cat #25030); Anti-CD3 antibody (eBiosciences—16-0032); Anti-CD28 antibody (eBiosciences—16-0281); ACK lysis buffer (1 mL) (GIBCO, Cat #—A10492); Histopaque (density-1.083 gm/ml) (SIGMA 10831); Trypan blue solution (SIGMA-T8154); 2 ml Norm Ject Luer Lock syringe—(Sigma 2014-12); 40 μm nylon cell strainer (BD FALCON 35230); Hemacytometer (Bright line-SIGMA Z359629); FACS Buffer (PBS/0.1% BSA): Phosphate Buffered Saline (PBS) pH 7.2 (HiMedia TS1006) with 0.1% Bovine Serum Albumin (BSA) (SIGMA A7050) and sodium azide (SIGMA 08591); 5 mM stock solution of CFSE: CFSE stock solution was prepared by diluting lyophilized CFSE with 180 μL of Di methyl Sulfoxide (DMSO C2H6SO, SIGMA-D-5879) and aliquoted in to tubes for further use. Working concentrations were titrated from 10 μM to 1 μM. (eBioscience—650850-85); 0.05% Trypsin and 0.02% EDTA (SIGMA 59417C); 96-well format ELISA plates (Corning CLS3390); BD FACS caliber (E6016). Splenocytes harvested in a 50 ml falcon tube by mashing spleen in a 40 μm cell strainer were further treated with 1 ml ACK lysis buffer for 5 mins at room temperature. After washing with 9 ml of RPMI complete media, cells were re-suspended in 3 ml of 1×PBS in a 15 ml tube. 3 ml of histopaque was added very carefully to the bottom of the tube without disturbing overlaying splenocyte suspension. Spin the tube at 800×g for 20 mins at room temperature. Opaque layer of lymphocytes was collected carefully without disturbing/mixing any of the layers. Cells were washed twice with cold 1×PBS followed by total cell counting using trypan blue exclusion method and used further for cell based assays. Tumor cells were cultured and maintained in high glucose complete DMEM media. 1×10^5 tumor cells were plated in 96 well plates along with required conc. of PD1 derived peptide and allowed to adhere at 37° C. for 4 hrs. 1×10^6 cells/ml of harvested splenocytes were treated with 5 μM of CFSE in pre warmed 1×PBS/0.1% BSA solution for 10 mins at 37° C. Excess CFSE was quenched using 5 volumes of ice-cold culture media to the cells and incubated on ice for 5 mins. CFSE labeled splenocytes were further given three washes with ice cold complete DMEM media. CFSE labeled 1×10^5 splenocytes were added to above wells containing tumors cells and PD1 peptides. Splenocytes were stimulated with anti-CD3 and anti-CD28 antibody (1 μg/ml each) and the co-culture was further incubated for 72 hrs at 37° C. with 5% CO2. Cells were harvested and washed thrice with ice cold FACS buffer and % proliferation was analyzed using a FACS caliber with 488 nm excitation and 521 nm emission filters. Each experimental condition was carried out in triplicates and each experiment at least carried out three times % splenocyte proliferation was analyzed using cell quest FACS program and fold induction was calculated by normalizing individual values to % background proliferation Fold Induction=% splenocyte proliferation/% background proliferation Stimulated splenocytes: Splenocytes+anti-CD3/CD28 stimulation Background proliferation: Splenocytes+anti-CD3/CD28+PDL or Tumor Compound effect was examined by adding required conc. of compound to anti-CD3/CD28 stimulated splenocytes in presence of ligand (PDL-1/PDL-2) or tumor cells.

[2] = test system: B16F10 cells; test: In vivo efficacy on lung metastasis in B16F10 subcutaneous melanoma model; details: C57/Black6 female mice, 5 mg/kg subcutaneously once daily for fourteen days
Experimental: C57/Black6 female mice (Aurigene, Bangalore, India) aged 6 to 8 weeks were used for the experiment. Animals were acclimatized for a week in the experimental room before conducting the experiment. On day 0, B16F10 cells grown in DMEM containing 10% FBS at 70 to 75% confluency were harvested and 0.1×10^6 cells per animal were injected to mice subcutaneously on the right flank region. On day 1, peptide (Compound #2) at 5 mg/kg dose dissolved in PBS, pH 7.4 was dosed subcutaneously at the rate of 10 ml/kg volume for fourteen days once daily. Vehicle control group of mice received only saline. Taxol at 5 MPK (i.p) with qd dosing was used as reference in this study. Each group consisted of ten animals. Body weight and clinical signs were recorded daily. […] At the end of 14 days of dosing period lung was harvested and analysed for metastasis by counting the black nodules.

[3] = % splenocyte proliferation/% background proliferation, MDAMB231 over expressing PDL1, background 1.0, stimulated splenocytes 5.5

T1 sequence (Q9NZQ7 19-290): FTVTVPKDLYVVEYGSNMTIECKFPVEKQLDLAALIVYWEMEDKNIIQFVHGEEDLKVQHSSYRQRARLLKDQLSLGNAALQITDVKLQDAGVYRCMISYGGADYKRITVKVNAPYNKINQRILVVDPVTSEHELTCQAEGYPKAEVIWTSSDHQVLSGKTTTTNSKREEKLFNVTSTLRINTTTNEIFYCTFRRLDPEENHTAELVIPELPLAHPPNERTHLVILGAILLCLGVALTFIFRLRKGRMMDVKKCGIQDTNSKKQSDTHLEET

SMILES: C[C@@H](O)[C@@H]1NC(=O)[C@H](CC(N)=O)NC(=O)C(CO)NC(=O)C(CCC(N)=O)NC(=O)CCCCCNC(=O)[C@H](Cc2ccccc2)NC(=O)[C@H](CO)NC(=O)[C@H](CCC(=O)O)NC(=O)[C@H](CO)NC1=O (stereo partly shown) [Compound 15] (cyclo([Ahx][ξQ][ξS]NTSESF))
- Fold induction [1]: 4
- % Splenocyte proliferation [1]: 53%

SMILES: C[C@@H](O)[C@@H]1NC(=O)[C@H](CCC(=O)O)NC(=O)C(CO)NC(=O)CCC(C(N)=O)NC(=O)[C@H](Cc2ccccc2)NC(=O)[C@H](CO)NC(=O)[C@H](CCCCN)NC(=O)[C@H](CO)NC1=O (stereo partly shown) [Compound 20] ([ξS]ETSKSF[ξE]-NH2; lactam N-8)
- Fold induction [1, 3]: 2.8
- % Splenocyte proliferation [1]: 36%

SMILES: C[C@@H](O)[C@@H]1NC(=O)[C@H](CCC(=O)O)NC(=O)C(CO)NC(=O)C(CCC(N)=O)NC(=O)[C@H](Cc2ccccc2)NC(=O)[C@H](CO)NC(=O)[C@H](CCCCN)NC(=O)[C@H](CO)NC1=O (stereo partly shown) [Compound 16] (cyclo(ETSKSF[ξQ][ξS]))
- Fold induction [1, 3]: 2.8
- % Splenocyte proliferation [1]: 36%

SMILES: C[C@@H](O)[C@@H]1NC(=O)C(NC(=O)[C@@H](N)CCC(=O)O)CCC(=O)NCCCCC(C(=O)N[C@@H](CO)C(=O)N[C@@H](Cc2ccccc2)C(N)=O)NC(=O)[C@H](CO)NC1=O (stereo partly shown) [Compound 4] (H-E[ξE]TS[ξK]SF-NH2; lactam 2-5; N-terminus assumed)
- Fold induction [1, 3]: 2.8
- % Splenocyte proliferation [1]: 36%

SMILES: C[C@@H](O)[C@@H]1NC(=O)[C@@H](NC(=O)[C@@H](N)CO)CCC(=O)NCCCC[C@@H](C(=O)N[C@@H](CO)C(=O)N[C@@H](Cc2ccccc2)C(N)=O)NC(=O)[C@H](CO)NC1=O [Compound 2] (H-SETSKSF-NH2; lactam 2-5)
- Fold induction [1, 3]: 4.3
- % Splenocyte proliferation [1]: 57%
- body weight reduction during the period of dosing [2]: no body weight reduction
- clinical signs [2]: no clinical signs observed

SMILES: C[C@@H](O)[C@@H]1NC(=O)[C@H](CC(N)=O)NC(=O)C(CO)NC(=O)C(CCC(N)=O)NC(=O)[C@H](Cc2ccccc2)NC(=O)[C@H](CO)NC(=O)[C@H](CCC(=O)O)NC(=O)[C@H](CO)NC1=O (stereo partly shown) [Compound 14] (cyclo(ESF[ξQ][ξS]NTS))
- Fold induction [1, 3]: 4.2
- % Splenocyte proliferation [1]: 55%

SMILES: CC[C@H](C)[C@H](N)C(=O)NC1CCC(=O)NCCCCC(C(=O)N[C@@H](CO)C(=O)NC(CCC(N)=O)C(=O)O)NC(=O)[C@H](CO)NC(=O)[C@H](CCSC)NC1=O (stereo partly shown) [Compound 11] (H-I[ξE]MS[ξK]S[ξQ]-OH; lactam 2-5; N-terminus assumed)
- Fold induction [1, 3]: 4.2
- % Splenocyte proliferation [1]: 54%

SMILES: CC[C@H](C)[C@H](N)C(=O)NC1CCC(=O)NCCCCC(C(=O)N[C@@H](CO)C(=O)N[C@@H](Cc2ccccc2)C(N)=O)NC(=O)[C@H](CO)NC(=O)[C@H]([C@@H](C)O)NC1=O (stereo partly shown) [Compound 6] (H-I[ξE]TS[ξK]SF-NH2; lactam 2-5; N-terminus assumed)
- Fold induction [1, 3]: 4.2
- % Splenocyte proliferation [1]: 55%

SMILES: CC(C)[C@H](NC(=O)C1CCCCNC(=O)CCC(NC(=O)[C@@H](N)CO)C(=O)N[C@@H]([C@@H](C)O)C(=O)N[C@@H](CO)C(=O)N1)C(=O)N[C@@H](Cc1ccccc1)C(N)=O (stereo partly shown) [Compound 7] (H-S[ξE]TS[ξK]VF-NH2; lactam 2-5; N-terminus assumed)
- Fold induction [1, 3]: 4.0
- % Splenocyte proliferation [1]: 52%

SMILES: CC[C@H](C)[C@H](N)C(=O)NC1CCC(=O)NCCCCC(C(=O)N[C@H](C(=O)NC(CCC(N)=O)C(=O)O)C(C)C)NC(=O)[C@H](CO)NC(=O)[C@H](CCSC)NC1=O (stereo partly shown) [Compound 12] (H-I[ξE]MS[ξK]V[ξQ]-OH; lactam 2-5)
- Fold induction [1, 3]: 3.0
- % Splenocyte proliferation [1]: 39%

SMILES: CC[C@H](C)[C@H](NC(=O)[C@H](CO)NC(=O)C1CCCCNC(=O)CCC(NC(=O)[C@@H](N)CO)C(=O)N[C@@H]([C@@H](C)O)C(=O)N[C@@H](CO)C(=O)N1)C(N)=O (stereo partly shown) [Compound 5] (H-S[ξE]TS[ξK]SI-NH2; lactam 2-5; N-terminus assumed)
- Fold induction [1, 3]: 3.2
- % Splenocyte proliferation [1]: 42%

SMILES: C[C@@H](O)[C@@H]1NC(=O)[C@H](CCC(=O)O)NC(=O)C(CO)NC(=O)CCCCCNC(=O)C(CCC(N)=O)NC(=O)[C@H](Cc2ccccc2)NC(=O)[C@H](CO)NC(=O)[C@H](CCCCN)NC(=O)[C@H](CO)NC1=O (stereo partly shown) [Compound 17] (cyclo([Ahx][ξS]ETSKSF[ξQ]))
- Fold induction [1, 3]: 3.2
- % Splenocyte proliferation [1]: 42%

SMILES: C[C@@H](O)[C@@H]1NC(=O)C(NC(=O)[C@@H](N)CO)CCCCNC(=O)CCC(C(=O)N[C@@H](CO)C(=O)N[C@@H](Cc2ccccc2)C(N)=O)NC(=O)[C@H](CO)NC1=O (stereo partly shown) [Compound 1] (H-S[ξK]TS[ξE]SF-NH2; lactam 2-5)
- Fold induction [1]: 4.6
- % Splenocyte proliferation [1]: 60%
